Where a SMILES comes first, the peptide text is derived from it. Bridges are numbered along the chain shown (N, C = ends). [ ]: non-standard residue; d: D form. The star is where a group is joined. Phe(4-COOH) = N[C@@H](Cc1ccc(C(=O)O)cc1)C(=O)O; Bip = N[C@@H](Cc1ccc(-c2ccccc2)cc1)C(=O)O; Phe(3-Me) = Cc1cccc(C[C@H](N)C(=O)O)c1; NH(CH2)12COOH = O=C(O)CCCCCCCCCCCCN*; Val(3-OH) = CC(C)(O)[C@H](N)C(=O)O; 4Pal = N[C@@H](Cc1ccncc1)C(=O)O; Cha = N[C@@H](CC1CCCCC1)C(=O)O; Cit = NC(=O)NCCC[C@H](N)C(=O)O; Carboxymethyl = O=C(O)C*; NMeA = CN[C@@H](C)C(=O)O; Aun = NCCCCCCCCCCC(=O)O; Dab = NCC[C@H](N)C(=O)O; AEEA = NCCOCCOCC(=O)O; Propargyl = C#CC*
Target: T1, PD-1/PD-L1 interaction (PE-labeled human PD-L1-Ig binding to Jurkat cell line over-expressing human PD-1) (Homo sapiens, UniProt Q15116)
T1 construct: expressed in transfected cells; host or cells: Jurkat
Experiment: Jurkat-PD-1 Cell Binding High-Content Screening Assay (CBA)
Settings: Jurkat-hPD-1 cells, PE-labeled PD-L1-Ig 20 nM final; read-out: Jurkat HPD1 PDL1 IC50
How it was run: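 Jurkat cells overexpressing human PD-1 (8×10^3/well, DMEM + 10% FCS) preincubated with compound 2 h at 37 °C, then PE-labelled human PD-L1-Ig (20 nM final) for 1 h. Cells fixed in paraformaldehyde with Hoechst 33342; bound PD-L1 quantified by high-content imaging.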

T1 sequence (Q15116 25-288): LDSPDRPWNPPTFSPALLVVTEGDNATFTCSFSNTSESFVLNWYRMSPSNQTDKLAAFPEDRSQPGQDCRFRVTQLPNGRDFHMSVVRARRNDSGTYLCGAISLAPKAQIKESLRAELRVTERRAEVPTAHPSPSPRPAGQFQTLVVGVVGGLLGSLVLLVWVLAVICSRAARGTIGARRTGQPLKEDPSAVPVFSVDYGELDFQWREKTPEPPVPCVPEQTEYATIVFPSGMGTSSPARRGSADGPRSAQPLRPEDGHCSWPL

| Structure (SMILES) | IC50 |
| --- | --- |
| CC(C)C[C@@H]1NC(=O)[C@H](Cc2c[nH]c3ccccc23)NC(=O)[C@H](CC(=O)O)NC(=O)[C@H](Cc2ccc(C(=O)O)cc2)NC(=O)[C@H](Cc2ccc(OCC(=O)O)cc2)NC(=O)CSC[C@@H](C(=O)NCCOCCOCC(=O)NCCCCCCCCCCC(=O)O)NC(=O)[C@H](CCCNC(N)=O)NC(=O)[C@H](C(C)C)NC(=O)[C@H](CC2CCCCC2)NC(=O)[C@H](CCN)NC(=O)[C@@H](CC(C)C)NC(=O)[C@H](C)N(C)C(=O)[C@H](Cc2ccc(O)cc2)NC(=O)[C@H](Cc2ccc(-c3ccccc3)cc2)NC1=O [Example 1101] ({CH2CO}-Y(Carboxymethyl)[Phe(4-COOH)]DWL[Bip]Y[NMeA][dL][Dab][Cha]V[Cit]C[AEEA][Aun]-OH; thioether N-14) | 48 nM |
| C#CCOC[C@@H]1NC(=O)[C@H](C(C)C)NC(=O)[C@H](CC2CCCCC2)NC(=O)[C@H](CCN)NC(=O)[C@@H](CC(C)C)NC(=O)[C@H](C)N(C)C(=O)[C@H](Cc2ccc(OCC(=O)O)cc2)NC(=O)[C@H](Cc2ccc(-c3ccccc3)cc2)NC(=O)[C@H](Cc2ccc(OCC(=O)O)cc2)NC(=O)[C@H](Cc2c[nH]c3ccccc23)NC(=O)[C@H](CC(=O)O)NC(=O)[C@H](Cc2ccncc2)NC(=O)[C@H](Cc2ccc(OCC(=O)O)cc2)NC(=O)CSC[C@@H](C(=O)N[C@@H](CCN)C(=O)NCCOCCOCC(=O)NCCCCCCCCCCC(=O)O)NC1=O [Example 1103] ({CH2CO}-Y(Carboxymethyl)[4Pal]DWY(Carboxymethyl)[Bip]Y(Carboxymethyl)[NMeA][dL][Dab][Cha]VS(Propargyl)C[Dab][AEEA][Aun]-OH; thioether N-14) | 19 nM |
| Cc1cccc(C[C@@H]2NC(=O)[C@H](CC(=O)O)NC(=O)[C@H](Cc3ccc(C(=O)O)cc3)NC(=O)[C@H](Cc3ccncc3)NC(=O)CSC[C@@H](C(=O)N[C@@H](CCN)C(=O)NCCOCCOCC(=O)NCCCCCCCCCCCCC(=O)O)NC(=O)[C@H](CCC(=O)O)NC(=O)[C@H](C(C)(C)O)NC(=O)[C@H](CC3CCCCC3)NC(=O)[C@H](CCN)NC(=O)[C@@H](CC(C)C)NC(=O)[C@H](C)N(C)C(=O)[C@H](Cc3ccc(C(=O)O)cc3)NC(=O)[C@H](Cc3ccc(-c4ccccc4)cc3)NC(=O)[C@H](Cc3ccc(C(=O)O)cc3)NC2=O)c1 [Example 1104] ({CH2CO}-[4Pal][Phe(4-COOH)]D[Phe(3-Me)][Phe(4-COOH)][Bip][Phe(4-COOH)][NMeA][dL][Dab][Cha][Val(3-OH)]EC[Dab][AEEA]-{NH(CH2)12COOH}; thioether N-14) | 559 nM |
| CC(C)C[C@H]1NC(=O)[C@H](C)N(C)C(=O)[C@H](Cc2ccc(OCC(=O)O)cc2)NC(=O)[C@H](Cc2ccc(-c3ccccc3)cc2)NC(=O)[C@H](Cc2ccc(OCC(=O)O)cc2)NC(=O)[C@H](Cc2c[nH]c3ccccc23)NC(=O)[C@H](CC(=O)O)NC(=O)[C@H](Cc2ccncc2)NC(=O)[C@H](Cc2ccc(OCC(=O)O)cc2)NC(=O)CSC[C@@H](C(=O)N[C@@H](CCN)C(=O)NCCCCCCCCCCC(=O)O)NC(=O)[C@H](CCCn2cc(CN(C)C(=O)c3ccc(F)cc3)nn2)NC(=O)[C@H](C(C)C)NC(=O)[C@H](CC2CCCCC2)NC(=O)[C@H](CCN)NC1=O [Example 1110] | 23.1 nM |
| CC(C)C[C@@H]1NC(=O)[C@H](Cc2c[nH]c3ccccc23)NC(=O)[C@H](CC(=O)O)NC(=O)[C@H](Cc2ccc(C(=O)O)cc2)NC(=O)[C@H](Cc2ccc(OCC(=O)O)cc2)NC(=O)CSC[C@@H](C(=O)NCCOCCOCC(=O)NCCCCCCCCCCC(=O)O)NC(=O)[C@H](CCC(=O)O)NC(=O)[C@H](C(C)(C)O)NC(=O)[C@H](CC2CCCCC2)NC(=O)[C@H](CCN)NC(=O)[C@@H](CC(C)C)NC(=O)[C@H](C)N(C)C(=O)[C@H](C(C)C)NC(=O)[C@H](Cc2ccc(-c3ccccc3)cc2)NC1=O [Example 1112] ({CH2CO}-Y(Carboxymethyl)[Phe(4-COOH)]DWL[Bip]V[NMeA][dL][Dab][Cha][Val(3-OH)]EC[AEEA][Aun]-OH; thioether N-14) | 47.1 nM |
| CC(C)C[C@@H]1NC(=O)[C@H](Cc2c[nH]c3ccccc23)NC(=O)[C@H](CC(=O)O)NC(=O)[C@H](Cc2ccc(C(=O)O)cc2)NC(=O)[C@H](Cc2ccc(OCC(=O)O)cc2)NC(=O)CSC[C@@H](C(=O)NCCOCCOCC(=O)NCCCCCCCCCCC(=O)O)NC(=O)[C@H](CCC(=O)O)NC(=O)[C@H](C(C)(C)O)NC(=O)[C@H](CC2CCCCC2)NC(=O)[C@H](CCN)NC(=O)[C@@H](CC(C)C)NC(=O)[C@H](C)N(C)C(=O)[C@H](C(C)C)NC(=O)[C@H](Cc2ccc(-c3ccccc3)cc2)NC1=O [Example 1114] ({CH2CO}-Y(Carboxymethyl)[Phe(4-COOH)]DWL[Bip]V[NMeA][dL][Dab][Cha][Val(3-OH)]EC[AEEA][Aun]-OH; thioether N-14) | 43.7 nM |
| CC(C)C[C@@H]1NC(=O)[C@H](Cc2c[nH]c3ccccc23)NC(=O)[C@H](CC(=O)O)NC(=O)[C@H](Cc2ccc(C(=O)O)cc2)NC(=O)[C@H](Cc2ccc(OCC(=O)O)cc2)NC(=O)CSC[C@@H](C(=O)NCCOCCOCC(=O)NCCCCCCCCCCC(=O)O)NC(=O)[C@H](CCN)NC(=O)[C@H](C(C)(C)O)NC(=O)[C@H](CC2CCCCC2)NC(=O)[C@H](CCN)NC(=O)[C@@H](CC(C)C)NC(=O)[C@H](C)N(C)C(=O)[C@H](C(C)C)NC(=O)[C@H](Cc2ccc(-c3ccccc3)cc2)NC1=O [Example 1120] ({CH2CO}-Y(Carboxymethyl)[Phe(4-COOH)]DWL[Bip]V[NMeA][dL][Dab][Cha][Val(3-OH)][Dab]C[AEEA][Aun]-OH; thioether N-14) | 13.6 nM |
| CC(C)C[C@@H]1NC(=O)[C@H](Cc2c[nH]c3ccccc23)NC(=O)[C@H](CC(=O)O)NC(=O)[C@H](Cc2ccc(C(=O)O)cc2)NC(=O)[C@H](Cc2ccc(OCC(=O)O)cc2)NC(=O)CSC[C@@H](C(=O)N[C@@H](CCN)C(=O)NCCOCCOCC(=O)NCCCCCCCCCCC(=O)O)NC(=O)[C@H](CCC(=O)O)NC(=O)[C@H](C(C)(C)O)NC(=O)[C@H](CC2CCCCC2)NC(=O)[C@H](CCN)NC(=O)[C@@H](CC(C)C)NC(=O)[C@H](C)N(C)C(=O)[C@H](C(C)C)NC(=O)[C@H](Cc2ccc(-c3ccccc3)cc2)NC1=O [Example 1123] ({CH2CO}-Y(Carboxymethyl)[Phe(4-COOH)]DWL[Bip]V[NMeA][dL][Dab][Cha][Val(3-OH)]EC[Dab][AEEA][Aun]-OH; thioether N-14) | 9.3 nM |

More lines, in order of falling IC50, values ahead:

| IC50 | Structure (SMILES) |
| --- | --- |
| 9.1 nM | CC(C)C[C@@H]1NC(=O)[C@H](Cc2c[nH]c3ccccc23)NC(=O)[C@H](CC(=O)O)NC(=O)[C@H](Cc2ccc(C(=O)O)cc2)NC(=O)[C@H](Cc2ccc(OCC(=O)O)cc2)NC(=O)CSC[C@@H](C(=O)NCCOCCOCC(=O)NCCCCCCCCCCC(=O)O)NC(=O)[C@H](CCCNC(N)=O)NC(=O)[C@H](C(C)(C)O)NC(=O)[C@H](CC2CCCCC2)NC(=O)[C@H](CCN)NC(=O)[C@@H](CC(C)C)NC(=O)[C@H](C)N(C)C(=O)[C@H](C(C)C)NC(=O)[C@H](Cc2ccc(-c3ccccc3)cc2)NC1=O [Example 1111] ({CH2CO}-Y(Carboxymethyl)[Phe(4-COOH)]DWL[Bip]V[NMeA][dL][Dab][Cha][Val(3-OH)][Cit]C[AEEA][Aun]-OH; thioether N-14) |
| 8.1 nM | CC(C)C[C@@H]1NC(=O)[C@H](Cc2c[nH]c3ccccc23)NC(=O)[C@H](CC(=O)O)NC(=O)[C@H](Cc2ccc(C(=O)O)cc2)NC(=O)[C@H](Cc2ccc(OCC(=O)O)cc2)NC(=O)CSC[C@@H](C(=O)NCCOCCOCC(=O)NCCCCCCCCCCC(=O)O)NC(=O)[C@H](Cc2cnc[nH]2)NC(=O)[C@H](C(C)(C)O)NC(=O)[C@H](CC2CCCCC2)NC(=O)[C@H](CCN)NC(=O)[C@@H](CC(C)C)NC(=O)[C@H](C)N(C)C(=O)[C@H](C(C)C)NC(=O)[C@H](Cc2ccc(-c3ccccc3)cc2)NC1=O [Example 1121] ({CH2CO}-Y(Carboxymethyl)[Phe(4-COOH)]DWL[Bip]V[NMeA][dL][Dab][Cha][Val(3-OH)]HC[AEEA][Aun]-OH; thioether N-14) |
| 7.2 nM | Cc1cccc(C[C@@H]2NC(=O)[C@H](CC(=O)O)NC(=O)[C@H](Cc3ccc(C(=O)O)cc3)NC(=O)[C@H](Cc3ccc(OCC(=O)O)cc3)NC(=O)CSC[C@@H](C(=O)N[C@@H](CCN)C(=O)NCCOCCOCC(=O)NCCOCCOCC(=O)NCCCCCCCCCCCCC(=O)O)NC(=O)[C@H](CO)NC(=O)[C@H](C(C)(C)O)NC(=O)[C@H](CC3CCCCC3)NC(=O)[C@H](CCN)NC(=O)[C@@H](CC(C)C)NC(=O)[C@H](C)N(C)C(=O)[C@H](CCC(N)=O)NC(=O)[C@H](Cc3ccc(-c4ccccc4)cc3)NC(=O)[C@H](Cc3ccc(C(=O)O)cc3)NC2=O)c1 [Example 1105] ({CH2CO}-Y(Carboxymethyl)[Phe(4-COOH)]D[Phe(3-Me)][Phe(4-COOH)][Bip]Q[NMeA][dL][Dab][Cha][Val(3-OH)]SC[Dab][AEEA][AEEA]-{NH(CH2)12COOH}; thioether N-14) |
| 3.8 nM | CC(C)C[C@@H]1NC(=O)[C@H](Cc2c[nH]c3ccccc23)NC(=O)[C@H](CC(=O)O)NC(=O)[C@H](Cc2ccc(C(=O)O)cc2)NC(=O)[C@H](Cc2ccc(OCC(=O)O)cc2)NC(=O)CSC[C@@H](C(=O)N[C@@H](CCN)C(=O)NCCOCCOCC(=O)NCCCCCCCCCCC(=O)O)NC(=O)[C@H](CCCNC(N)=O)NC(=O)[C@H](C(C)(C)O)NC(=O)[C@H](CC2CCCCC2)NC(=O)[C@H](CCN)NC(=O)[C@@H](CC(C)C)NC(=O)[C@H](C)N(C)C(=O)[C@H](C(C)C)NC(=O)[C@H](Cc2ccc(-c3ccccc3)cc2)NC1=O [Example 1122] ({CH2CO}-Y(Carboxymethyl)[Phe(4-COOH)]DWL[Bip]V[NMeA][dL][Dab][Cha][Val(3-OH)][Cit]C[Dab][AEEA][Aun]-OH; thioether N-14) |

From patent US20260070945A1, “MACROCYCLIC IMMUNOMODULATORS” (Bristol-Myers Squibb Company, priority 2022, published 2026)
